# Residue numbers refer to the chain shown, from its start. Active and inactive are the calls of the source. The calls are words filed in the database; no cut-off is given here.
# Legend:
# [1] = test system: T1, General amino-acid permease GAP1 (Saccharomyces cerevisiae), P19145 [G390C]; test: Activation of yeast Gap1 G390C mutant-mediated amino acid uptake at 10 mM
# T1 sequence (whole entry): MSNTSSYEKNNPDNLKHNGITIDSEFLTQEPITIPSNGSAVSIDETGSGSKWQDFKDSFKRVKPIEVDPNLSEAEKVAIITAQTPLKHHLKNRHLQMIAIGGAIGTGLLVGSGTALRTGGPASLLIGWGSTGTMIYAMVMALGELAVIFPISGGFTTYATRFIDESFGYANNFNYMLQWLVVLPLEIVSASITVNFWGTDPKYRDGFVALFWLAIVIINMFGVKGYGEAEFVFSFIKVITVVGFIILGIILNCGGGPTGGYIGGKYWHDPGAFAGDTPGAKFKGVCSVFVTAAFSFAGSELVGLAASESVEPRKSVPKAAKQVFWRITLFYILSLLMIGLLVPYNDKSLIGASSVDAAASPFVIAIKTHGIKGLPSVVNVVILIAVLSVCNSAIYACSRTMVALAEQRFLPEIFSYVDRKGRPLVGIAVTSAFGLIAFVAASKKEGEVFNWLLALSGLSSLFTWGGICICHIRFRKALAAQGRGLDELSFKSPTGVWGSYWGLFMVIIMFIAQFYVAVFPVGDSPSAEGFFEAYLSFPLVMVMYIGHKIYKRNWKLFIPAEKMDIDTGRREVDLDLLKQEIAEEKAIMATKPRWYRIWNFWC
# Saccharomyces cerevisiae = test: Activation of yeast Gap1 L404 mutant-mediated amino acid uptake at 10 mM
# [2] = test system: T2, General amino-acid permease GAP1 (Saccharomyces cerevisiae), P19145 [C397C]; test: Induction of yeast Gap1 C397C mutant-mediated trehalose activation at 10 mM
# T2 sequence (whole entry): T1 sequence (whole entry) with C390G
# [3] = test system: T3, General amino-acid permease GAP1 (Saccharomyces cerevisiae), P19145 [L383C]; test: Induction of yeast Gap1 L383C mutant-mediated trehalose activation at 2 mM in presence of 10 mM MTSEA treated before compound addition
# T3 sequence (whole entry): T1 sequence (whole entry) with L383C, C390G
# [4] = test system: T4, General amino-acid permease GAP1 (Saccharomyces cerevisiae), P19145 [N391C]; test: Induction of yeast Gap1 N391C mutant-mediated trehalose activation at 10 mM
# T4 sequence (whole entry): T1 sequence (whole entry) with C390G, N391C
smiles,measurement,setting,value
NC(=O)NCCC[C@H](N)C(=O)O,Activity,[1],inactive
same,Activity,Saccharomyces cerevisiae,inactive
same,Activity,[2],inactive
same,inhibition,[3],Active
same,Activity,[4],inactive

# — ChEMBL document CHEMBL1221220, “Transport and signaling via the amino acid binding site of the yeast Gap1 amino acid transceptor” (Nat Chem Biol, 2009)
